The values below come from patent US12048686B2, “Compositions and methods for activating NRF2-dependent gene expression” (The University of Chicago, priority 2018, dated 2024).

SMILES strings stand for the structures.

In experiment [1] the test system is IMR32 cells. Kind of experiment: Quantitative metabolomic profiling of IMR32 cells. In kind it is cell-based. As to the method:
Quantitative Metabolomic Profiling. For polar metabolite profiling experiments, cells were grown in 15 cm plates and cultured in RPMI supplemented with 10% FBS, 2 mM L-glutamine and 1% P/S prior to media replacement containing either vehicle (DMSO) or the indicated dose of CBR-470-1. Following incubation for the appropriate time, cells were scraped into ice-cold PBS and isolated by centrifugation at 1,400 g at 4° C. Cell pellets were resuspended in 300 μl of an 80:20 mixture of cold MeOH/H2O, an internal standard was added (10 nmol d3-serine; Sigma Aldrich), and the suspension was sonicated (Fisher Scientific FB-505) for 5 seconds followed by a 10 minute centrifugation at 16,000 g. […] Metabolite peak transitions and retention times are listed in Table 2 and were confirmed by running standards for measured glycolytic, PPP, CAC and co-factor metabolites. 2-phosphoglycerate and 3-phosphoglycerate isomers were quantified in aggregate (2PG/3PG). Relative metabolite abundance was quantified by integrated peak area for the given MRM-transition, and all metabolite levels were normalized to internal standard extracted ion intensity values for d3-serine. These parameters were used to quantify all metabolites, with the exception of 1,3-BPG and MGx, which required chemical derivitization to stable intermediates prior to LC-MS/MS quantification, as previously reported^20, 33. […]

Experiment [2] has as its system 20 line panel. The experiment is described as follows: Viability in 20 cell line panel correlated with CCLE mRNA levels. In kind it is cell-based. The procedure:
FIG. 36A-B. Viability assays performed in each cell line with compound treatment with CBR-470-1. Concentrations ranging from 0.1 to 30 micromolar for 48 hr. Viability was measured using Cell titer glo ATP quantification assay. Representative curves for three cell lines at 48 are shown on the left in (A). Table of 20 cell line IC50 values are shown in (B).
It was analyzed whether 1,3-BPG, which is directly metabolized by PGK1, could be involved in signaling to the KEAP1-NRF2 pathway via phosphoglyceryl-lysine (pgK) modification of KEAP1. […] Viability assays were performed in IMR32, OVCAR3, and A549 cell lines with compound treatment with CBR-470-1. Concentrations ranging from 0.1 to 30 micromolar for 48 hr. Viability was measured using Cell titer glo ATP quantification assay. Representative curves for three cell lines at 48 are shown in (FIG. 36A). Table of 20 cell line IC50 values are shown in (FIG. 36B).
Each point in FIG. 37 represents the correlation value (R^2) between cell line IC50 value (i.e. sensitivity) to CBR-470 plotted against the relative mRNA level (Z-score) for that cell line, and all other cell lines in the 20 line panel. mRNA levels were curated from the cancer cell line encyclopedia (CCLE).

Experiment [3] concerns HCT116. The experiment is described as follows: Viability of HCT116 with genetic manipulation of GLO1 and PGK1. The experiment is classed as cell-based.
In experiment [4] the target is T1, PGK1 (Homo sapiens, UniProt P00558).
T1 sequence (P00558 1-417): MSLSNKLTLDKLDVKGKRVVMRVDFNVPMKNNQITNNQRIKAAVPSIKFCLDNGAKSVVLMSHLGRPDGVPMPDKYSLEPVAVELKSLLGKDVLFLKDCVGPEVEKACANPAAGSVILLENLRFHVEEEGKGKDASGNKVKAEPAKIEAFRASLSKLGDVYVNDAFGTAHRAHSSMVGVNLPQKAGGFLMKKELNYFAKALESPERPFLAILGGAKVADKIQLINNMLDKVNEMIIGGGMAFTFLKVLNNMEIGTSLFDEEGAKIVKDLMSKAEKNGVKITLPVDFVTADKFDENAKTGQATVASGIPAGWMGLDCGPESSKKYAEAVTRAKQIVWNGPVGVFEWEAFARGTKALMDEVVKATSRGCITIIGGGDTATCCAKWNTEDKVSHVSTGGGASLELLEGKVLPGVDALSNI
Kind of experiment: Dye-based thermal denaturation assay. In kind it is binding. Conditions: recombinant PGK1, compound 20 μM. The procedure:
FIG. 5A-E. A photoactivatable affinity probe-based approach identifies PGK1 as the relevant cellular target of CBR-470-1. (a) Silver staining and anti-biotin Western blots of ammonium sulfate fractionated lysates from UV-irradiated IMR32 cells treated with 5 μM for 1 hour with or without CBR-470-1 competition (250 μM) (n=3). Shown on the right are initial proteomic target results from gel-band digestion and LC-MS/MS analysis. (b) Dye-based thermal denaturation assay with recombinant PGK1 in the presence CBR-470-1 (20 μM) or vehicle alone (n=3). Calculated Tm values are listed. (c, d) Dose-dependent thermal stability assay of recombinant PGK1 and GAPDH in the presence of increasing doses of CBR-470-1 near the Tm of both proteins (57° C.) (c) (n=5) or room temperature (d) (n=3). Western blot of sample supernatants after centrifugation (13,000 rpm) detected total PGK1 and GAPDH protein, which were plotted in Prism (below). (e) ARE-LUC reporter activity in HEK293T cells with transient shRNA.
Dye-based thermal denaturation assay. Thermal denaturation experiments were performed using a Protein Thermal Shift Dye Kit (ThermoFisher, 4461146). […] Fluorescence values were recorded using a Viia7 Real-Time PCR instrument according to supplied instructions.

Turning to `CC(C)CN[C@H]1CS(=O)(=O)C[C@@H]1S(=O)(=O)c1ccc(Cl)cc1` [CBR-470-1], in experiment [1], the “downstream metabolites (3PG, lactate)” value is on record as “depletion of downstream metabolites” and the “metabolite levels upstream of PGK1 (BPG, GAP)” value is given as “rapid increase in metabolite levels upstream of PGK1”. In experiment [2], the “sensitivity (IC50) versus GLO1 mRNA level” value was “high GLO1 exhibit higher sensitivity” and the “sensitivity (IC50) versus NRF2 target gene expression” value is listed as “lower NRF2 target gene expression show increased sensitivity”. In addition, the “viability sensitivity of PGK1 knockdown cells” value in experiment [3] (HCT116, PGK1 knockdown) is given as “more sensitive to CBR-470-1 metabolic inhibition”. Moreover, the “viability sensitivity of cells acclimated to low GLO1 levels” value in experiment [3] (HCT116, low GLO1) is “resistance to CBR-470-1 metabolic inhibition”. Also, in experiment [4], the “shift in PGK1 thermal stability” value is “consistent shift in PGK1 stability”.
